Assay results published in patent US20090018111A1, “Novel Antimicrobial Medicament” (priority 2004, published 2009).
Read-outs that look alike come from different tables or passages of the source.

Columns and labels:
[1] = test system: C. freundii GN346; assay: Sensitivity test (agar dilution); assay type: cell-based, Citrobacter freundii; settings: Citrobacter freundii
Method: The antibacterial activities were tested against various 18 bacteria (27 standard strains) which are representative bacteria caused clinically infectious disease (Staphylococcus aureus 3 strains, Staphylococcus epidermidis 1 strain, Micrococcus luteus 1 strain, Streptococcus pyogenes 1 strain, Enterococcus faecalis 1 strain, Enterococcus faecium 1 strain, Bacillus subtilis 1 strain, Escherichia coli 3 strains, Klebsiella pneumoniae 1 strain, Proteus mirabilis 1 strain, Proteus vulgaris 2 strains, Pseudomonas aeruginosa 3 strains, Serratia marcescens 2 strains, Enterobacter aerogenes 1 strain, Stenotrophomonas maltophilia 1 strain, Enterobacter cloacae 1 strain, Citrobacter freundii 1 strain, Moraxella catarrhalis 2 strains).
(§1) According to the standard method of Japan Chemotherapeutic Society (Chemotherapy, vol. […], p 76-79 (1981)) the test was carried out using the agar dilution method. After dissolving test samples in distilled water, agar medium containing the test samples was prepared in such a manner that the final concentration became twice serial dilution by pouring serially diluted combination drug solution or a single drug solution into agar medium. As agar medium was used Mueller Hinton Agar medium (MHA). Then, each strain was cultivated over night at 37° C. in an incubator and suspended in buffered saline solution with gelatin (BSG) in the concentration of about 10^6 CFU/ml. The suspension (about 5 μl) containing test strains was inoculated to the medium containing the test samples by Micro Planter.
When the sample is subjected to sensitivity test, this mixed solution was diluted by twice serial dilution method.
(§2) Furthermore, when the drug is solely used, each test sample was used as it is, and diluted by twice serial dilution method from the maximum concentration to the minimum concentration.
FIC index based on MIC value was calculated. […] Namely, when FIC index calculated by the following formula is equal or less than 1, the enhanced effect of the combination drug in said ratio is considered as positive. When FIC index is over 1, the enhanced effect of the combination drug in said ratio is considered as negative.
Formula of FIC index: FIC index=(MIC of Drug A in combination/MIC of Drug A alone)+(MIC of Drug B in combination/MIC of Drug B alone) N.C. in tables means being not calculated.

[2] = test system: B. cepacia 14427; assay: Sensitivity test (agar dilution), clinical isolate; assay type: cell-based, Burkholderia cepacia
Method: (§3) In addition, the antibacterial activities were tested against strains which are comparatively less sensitive to β-lactam compounds, namely clinically isolated 13 strains of Acinetobacter calcoaceticus and Acinetobacter lwoffi, clinically isolated 11 strains of Serratia marcescens, clinically isolated 12 strains of Burkholderia cepacia, and clinically isolated 15 strains of Pseudomonas aeruginosa.
as §1
(§4) Each drug was weighed, and dissolved in distilled water to give a test sample. When the drugs are used in combination, two kinds of solution containing each drug were mixed so as to be various ratio of concentration to give a mixed solution. When the sample is subjected to sensitivity test, this mixed solution was diluted by twice serial dilution method.
as §2

[3] = test system: B. cepacia 14428; assay: Sensitivity test (agar dilution), clinical isolate; assay type: cell-based, Burkholderia cepacia
Method: as §3, §1, §4, §2

[4] = test system: B. cepacia 14429; assay: Sensitivity test (agar dilution), clinical isolate; assay type: cell-based, Burkholderia cepacia
Method: as §3, §1, §4, §2

[5] = test system: B. cepacia 14430; assay: Sensitivity test (agar dilution), clinical isolate; assay type: cell-based, Burkholderia cepacia
Method: as §3, §1, §4, §2

[6] = test system: B. cepacia 14607; assay: Sensitivity test (agar dilution), clinical isolate; assay type: cell-based, Burkholderia cepacia
Method: as §3, §1, §4, §2

[7] = test system: B. cepacia 1892324; assay: Sensitivity test (agar dilution), clinical isolate; assay type: cell-based, Burkholderia cepacia
Method: as §3, §1, §4, §2

[8] = test system: B. cepacia 1993527; assay: Sensitivity test (agar dilution), clinical isolate; assay type: cell-based, Burkholderia cepacia
Method: as §3, §1, §4, §2

[9] = test system: B. cepacia 257-1; assay: Sensitivity test (agar dilution), clinical isolate; assay type: cell-based, Burkholderia cepacia
Method: as §3, §1, §4, §2

[10] = test system: B. cepacia 3138; assay: Sensitivity test (agar dilution), clinical isolate; assay type: cell-based, Burkholderia cepacia
Method: as §3, §1, §4, §2

[11] = test system: B. cepacia 7247; assay: Sensitivity test (agar dilution), clinical isolate; assay type: cell-based, Burkholderia cepacia
Method: as §3, §1, §4, §2

[12] = test system: B. cepacia 7438; assay: Sensitivity test (agar dilution), clinical isolate; assay type: cell-based, Burkholderia cepacia
Method: as §3, §1, §4, §2

## C[C@@H](O)[C@H]1C(=O)N2C(C(=O)O)=C(S[C@@H]3CN[C@H](C(=O)N(C)C)C3)[C@H](C)[C@H]12 [MEPM, meropenem]
[1]; GN346, Concomitant (MEPM:SM = 1:1), read-out: MIC
  MIC: 0.031 µg/mL
[1]; GN346, Concomitant (MEPM:SM = 1:2), read-out: MIC
  MIC: 0.031 µg/mL
[1]; GN346, Concomitant (MEPM:SM = 1:4), read-out: MIC
  MIC: 0.031 µg/mL
[1]; GN346, Concomitant drug (MEPM:SM = 2:1), read-out: MIC
  MIC: 0.031 µg/mL
[1]; GN346, alone, read-out: MIC
  MIC: 0.063 µg/mL
[2]; Burkholderia cepacia, 14427, Concomitant (ME:SM = 1:1)
  MIC: 1 µg/mL
[2]; Burkholderia cepacia, 14427, Concomitant (ME:SM = 1:2)
  MIC: 0.5 µg/mL
[2]; Burkholderia cepacia, 14427, Concomitant (ME:SM = 1:4)
  MIC: 0.5 µg/mL
[2]; Burkholderia cepacia, 14427, Concomitant (ME:SM = 2:1)
  MIC: 1 µg/mL
[2]; Burkholderia cepacia, 14427, alone
  MIC: 1 µg/mL
[3]; Burkholderia cepacia, 14428, Concomitant (ME:SM = 1:1)
  MIC: 1 µg/mL
[3]; Burkholderia cepacia, 14428, Concomitant (ME:SM = 1:2)
  MIC: 1 µg/mL
[3]; Burkholderia cepacia, 14428, Concomitant (ME:SM = 1:4)
  MIC: 0.5 µg/mL
[3]; Burkholderia cepacia, 14428, Concomitant (ME:SM = 2:1)
  MIC: 1 µg/mL
[3]; Burkholderia cepacia, 14428, alone
  MIC: 2 µg/mL
[4]; Burkholderia cepacia, 14429, Concomitant (ME:SM = 1:1)
  MIC: 1 µg/mL
[4]; Burkholderia cepacia, 14429, Concomitant (ME:SM = 1:2)
  MIC: 0.5 µg/mL
[4]; Burkholderia cepacia, 14429, Concomitant (ME:SM = 1:4)
  MIC: 0.5 µg/mL
[4]; Burkholderia cepacia, 14429, Concomitant (ME:SM = 2:1)
  MIC: 1 µg/mL
[4]; Burkholderia cepacia, 14429, alone
  MIC: 1 µg/mL
[5]; Burkholderia cepacia, 14430, Concomitant (ME:SM = 1:1)
  MIC: 1 µg/mL
[5]; Burkholderia cepacia, 14430, Concomitant (ME:SM = 1:2)
  MIC: 1 µg/mL
[5]; Burkholderia cepacia, 14430, Concomitant (ME:SM = 1:4)
  MIC: 2 µg/mL
[5]; Burkholderia cepacia, 14430, Concomitant (ME:SM = 2:1)
  MIC: 2 µg/mL
[5]; Burkholderia cepacia, 14430, alone
  MIC: 2 µg/mL
[6]; Burkholderia cepacia, 14607, Concomitant (ME:SM = 1:1)
  MIC: 1 µg/mL
[6]; Burkholderia cepacia, 14607, Concomitant (ME:SM = 1:2)
  MIC: 0.5 µg/mL
[6]; Burkholderia cepacia, 14607, Concomitant (ME:SM = 1:4)
  MIC: 0.5 µg/mL
[6]; Burkholderia cepacia, 14607, Concomitant (ME:SM = 2:1)
  MIC: 1 µg/mL
[6]; Burkholderia cepacia, 14607, alone
  MIC: 1 µg/mL
[7]; Burkholderia cepacia, 1892324, Concomitant (ME:SM = 1:1)
  MIC: 1 µg/mL
[7]; Burkholderia cepacia, 1892324, Concomitant (ME:SM = 1:2)
  MIC: 1 µg/mL
[7]; Burkholderia cepacia, 1892324, Concomitant (ME:SM = 1:4)
  MIC: 0.5 µg/mL
[7]; Burkholderia cepacia, 1892324, Concomitant (ME:SM = 2:1)
  MIC: 2 µg/mL
[7]; Burkholderia cepacia, 1892324, alone
  MIC: 2 µg/mL
[8]; Burkholderia cepacia, 1993527, Concomitant (ME:SM = 1:1)
  MIC: 1 µg/mL
[8]; Burkholderia cepacia, 1993527, Concomitant (ME:SM = 1:2)
  MIC: 1 µg/mL
[8]; Burkholderia cepacia, 1993527, Concomitant (ME:SM = 1:4)
  MIC: 2 µg/mL
[8]; Burkholderia cepacia, 1993527, Concomitant (ME:SM = 2:1)
  MIC: 2 µg/mL
[8]; Burkholderia cepacia, 1993527, alone
  MIC: 2 µg/mL
[9]; Burkholderia cepacia, 2571, Concomitant (ME:SM = 1:1)
  MIC: 0.5 µg/mL
[9]; Burkholderia cepacia, 2571, Concomitant (ME:SM = 1:2)
  MIC: 0.25 µg/mL
[9]; Burkholderia cepacia, 2571, Concomitant (ME:SM = 1:4)
  MIC: 0.25 µg/mL
[9]; Burkholderia cepacia, 2571, Concomitant (ME:SM = 2:1)
  MIC: 0.5 µg/mL
[9]; Burkholderia cepacia, 2571, alone
  MIC: 0.5 µg/mL
[10]; Burkholderia cepacia, 3138, Concomitant (ME:SM = 1:1)
  MIC: 1 µg/mL
[10]; Burkholderia cepacia, 3138, Concomitant (ME:SM = 1:2)
  MIC: 1 µg/mL
[10]; Burkholderia cepacia, 3138, Concomitant (ME:SM = 1:4)
  MIC: 2 µg/mL
[10]; Burkholderia cepacia, 3138, Concomitant (ME:SM = 2:1)
  MIC: 2 µg/mL
[10]; Burkholderia cepacia, 3138, alone
  MIC: 2 µg/mL
[11]; Burkholderia cepacia, 7247, Concomitant (ME:SM = 1:1)
  MIC: 2 µg/mL
[11]; Burkholderia cepacia, 7247, Concomitant (ME:SM = 1:2)
  MIC: 2 µg/mL
[11]; Burkholderia cepacia, 7247, Concomitant (ME:SM = 1:4)
  MIC: 2 µg/mL
[11]; Burkholderia cepacia, 7247, Concomitant (ME:SM = 2:1)
  MIC: 2 µg/mL
[11]; Burkholderia cepacia, 7247, alone
  MIC: 2 µg/mL
[12]; Burkholderia cepacia, 7438, Concomitant (ME:SM = 1:1)
  MIC: 2 µg/mL
[12]; Burkholderia cepacia, 7438, Concomitant (ME:SM = 1:2)
  MIC: 1 µg/mL
[12]; Burkholderia cepacia, 7438, Concomitant (ME:SM = 1:4)
  MIC: 2 µg/mL
[12]; Burkholderia cepacia, 7438, Concomitant (ME:SM = 2:1)
  MIC: 2 µg/mL
[12]; Burkholderia cepacia, 7438, alone
  MIC: 2 µg/mL

## C[C@H]1[C@H](NC(=O)/C(=N\OC(C)(C)C(=O)O)c2csc(N)n2)C(=O)N1S(=O)(=O)O [AZT, aztreonam]
[1]; GN346, Concomitant (AZT:SM = 1:1), C. freundii GN346, read-out: MIC concomitant
  MIC: 8 µg/mL
[1]; GN346, drug alone, C. freundii GN346, read-out: MIC alone
  MIC: 0.5 µg/mL
